Marks after values point to notes of the source that are not given here.
How the values were obtained:
[1] = tested on: HCT-116 colon cancer xenografts; assay: Tumor growth inhibition of HCT-116 colon cancer xenografts in tumor-bearing nude mice (tumor volume, TGI %, RTV, T/C %); format: in vivo, Balb/c Nude mice; details: for Day 0 (RTV) / Tumor volume, Day 0 / Day 4 (TGI %) / Day 4 (RTV) / Tumor volume, Day 4 / Day 6 (TGI %) / Day 6 (RTV) / Tumor volume, Day 6 / Day 8 (TGI %) / Day 8 (RTV) / Tumor volume, Day 8 / Day 11 (TGI %) / Day 11 (RTV) / Tumor volume, Day 11 / Day 13 (TGI %) / Day 13 (RTV) / Tumor volume, Day 13 / Day 15 (TGI %) / Day 15 (RTV) / Tumor volume, Day 15 / Day 18 (TGI %) / Day 18 (RTV) / Tumor volume, Day 18 / Day 20 (TGI %) / Day 20 (RTV) / Tumor volume, Day 20 / Day 22 (TGI %) / Day 22 (RTV) / Tumor volume, Day 22: G3-G9 groups, single IP dose; for Day 0 (RTV) / Tumor volume, Day 0 / Day 4 (RTV) / Tumor volume, Day 4 / Day 6 (RTV) / Tumor volume, Day 6 / Day 8 (RTV) / Tumor volume, Day 8 / Day 11 (RTV) / Tumor volume, Day 11 / Day 13 (RTV) / Tumor volume, Day 13 / Day 15 (RTV) / Tumor volume, Day 15 / Day 18 (RTV) / Tumor volume, Day 18 / Day 20 (RTV) / Tumor volume, Day 20 / Day 22 (RTV) / Tumor volume, Day 22: Mean±SEM; for T/C % (relative tumor proliferation rate): single-dose intraperitoneal, dosage mg/kg: G3, G4, G8 350, G5, G9 325, G6 300, G7 250;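 on T/C % (relative tumor proliferation rate): control C is the vehicle-treated model control group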
Outline: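 Tumors in HCT-116-inoculated nude mice were sized three times weekly by diameter, with volume V=3/4π(D/2)^3. Significance set at P<0.05.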

ICR mice = assay: in vivo; details: female ICR mice; single-dose ip
Description: This experiment was to investigate the toxic effects of single-dose intraperitoneal administration on ICR mice and determine the maximum tolerated dose (MTD) of each subject. Maximum tolerated dose (MTD) refers to the dose that may not cause an animal to die, may not cause the animal to suffer weight loss exceeding 10% (compared with Day 0), or may not produce significant side effects.
The corresponding amount of test substance was taken in a 5 mL glass tube and dissolved in ethanol with a 5 mm magnetic stirrer for stirring. After dissolving completely, Cremophor EL was added with continuous stirring. The marked amount of saline was added and mixed evenly before use. The volume ratio of ethanol, Cremophor EL, and physiological saline was 5:5:90.
Varieties and lines: ICR mice; level: SPF; sex: female.
Method of administration: ip. The dose was reduced in case of animal death, till an animal survived; the dose was increased in case of no animal death; the test was ended when the animals survived normally at the given high dose. Finally, the MTD of the mice on the test substances was determined according to the test results. The animals were observed continuously for 7 days after acute administration.
During the experiment, all animals were under detailed and continuous clinical observation for […], twice a day (10:00 am, 16:00 pm) after administration. The observation included but not limited to: skin, hair, ear, nose, mouth, chest, abdomen, external genitalia, limbs and feet, respiratory and circulatory system, autonomic effects (such as salivation), nervous system (such as tremor, convulsions, stress response and abnormal behavior).
The body of animals was weighed before administration, and then weighed and recorded at the same time each day.
The observation results, animal body weight, and animal survival after one week of administration were recorded in detail every day.

[2] = for Weight change rate, Day 0 / Weight of mice, Day 0 / Weight change rate, Day 4 / Weight of mice, Day 4 / Weight change rate, Day 6 / Weight of mice, Day 6 / Weight change rate, Day 8 / Weight of mice, Day 8 / Weight change rate, Day 11 / Weight of mice, Day 11 / Weight change rate, Day 13 / Weight of mice, Day 13 / Weight change rate, Day 15 / Weight of mice, Day 15 / Weight change rate, Day 18 / Weight of mice, Day 18 / Weight change rate, Day 20 / Weight of mice, Day 20 / Weight change rate, Day 22 / Weight of mice, Day 22: G3-G9 groups, single IP dose, Mean±SEM; for Day 22 Mortality: single IP dose (mg/kg)
Outline: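 Test compounds formulated in ethanol:Cremophor EL:saline (5:5:90), vehicle alone as control, in HCT-116 subcutaneous xenografts in female Balb/c nudes (6/group, start 60–150 mm^3). Weight measured three times weekly, tumour weight at end; unpaired t-test on Mean±SEM data.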

## CCCCOC(=O)Nc1nc(=O)n([C@@H]2O[C@H](CO)[C@@H](O)C2(F)F)cc1Br [Compound G6, 5-Br-4-N-(n-butoxycarbonyl)-2′-deoxy-2′,2′-difluorocytidine]
[1]; Day 0
  Day 0 (RTV): 1.00 ± 0.00
  Tumor volume, Day 0: 80.31 ± 24.42* mm^3
  T/C % (relative tumor proliferation rate): 0.09%
[1]; Day 4
  Day 4 (TGI %): 82.09%
  Day 4 (RTV): 1.42 ± 0.00
  Tumor volume, Day 4: 47.71 ± 0.00 mm^3
  T/C % (relative tumor proliferation rate): 75.54%
[1]; Day 6
  Day 6 (TGI %): 84.52%
  Day 6 (RTV): 1.95 ± 0.00
  Tumor volume, Day 6: 65.45 ± 0.00 mm^3
  T/C % (relative tumor proliferation rate): 64.68%
[1]; Day 8
  Day 8 (TGI %): 78.47%
  Day 8 (RTV): 3.38 ± 0.00
  Tumor volume, Day 8: 113.10 ± 0.00 mm^3
  T/C % (relative tumor proliferation rate): 89.68%
[1]; Day 11
  Day 11 (TGI %): 72.53%
  Day 11 (RTV): 6.59 ± 0.00
  Tumor volume, Day 11: 220.89 ± 0.00 mm^3
  T/C % (relative tumor proliferation rate): 110.90%
[1]; Day 13
  Day 13 (TGI %): 67.12%
  Day 13 (RTV): 11.39 ± 0.00
  Tumor volume, Day 13: 381.70 ± 0.00 mm^3
  T/C % (relative tumor proliferation rate): 132.45%
[1]; Day 15
  Day 15 (TGI %): 50.67%
  Day 15 (RTV): 20.80 ± 0.00
  Tumor volume, Day 15: 696.91 ± 0.00 mm^3
  T/C % (relative tumor proliferation rate): 198.59%
[1]; Day 18
  Day 18 (TGI %): 22.38%
  Day 18 (RTV): 42.88 ± 0.00
  Tumor volume, Day 18: 1436.76 ± 0.00 mm^3
  T/C % (relative tumor proliferation rate): 311.29%
[1]; Day 20
  Day 20 (TGI %): 16.62%
  Day 20 (RTV): 52.73 ± 0.00
  Tumor volume, Day 20: 1767.15 ± 0.00 mm^3
  T/C % (relative tumor proliferation rate): 332.56%
[1]; Day 22
  Day 22 (TGI %): 18.00%
  Day 22 (RTV): 64.00 ± 0.00
  Tumor volume, Day 22: 2144.66 ± 0.00 mm^3
  T/C % (relative tumor proliferation rate): 329.10%
ICR mice
  dose that could be tolerated (maximum tolerated dose, MTD): 200 mg/kg
[2]
  Weight change rate, Day 0: 0.00 ± 0.00%
  Weight of mice, Day 0: 21.47 ± 0.65 g
  Weight change rate, Day 8: 1.55 ± 0.00%
  Weight of mice, Day 8: 19.60 ± 0.00 g
  Weight change rate, Day 11: 6.22 ± 0.00%
  Weight of mice, Day 11: 20.50 ± 0.00 g
  Weight change rate, Day 13: 7.77 ± 0.00%
  Weight of mice, Day 13: 20.80 ± 0.00 g
  Weight change rate, Day 15: 8.29 ± 0.00%
  Weight of mice, Day 15: 20.90 ± 0.00 g
  Weight change rate, Day 18: 5.18 ± 0.00%
  Weight of mice, Day 18: 20.30 ± 0.00 g
  Weight change rate, Day 20: 4.66 ± 0.00%
  Weight of mice, Day 20: 20.20 ± 0.00 g
  Weight change rate, Day 22: 6.22 ± 0.00%
  Weight of mice, Day 22: 20.50 ± 0.00 g
  Day 22 Mortality: 83%
[2]; Day 4
  Weight change rate, Day 4: 0.00 ± 0.00%
  Weight of mice, Day 4: 19.30 ± 0.00 g
[2]; Day 4, G4 350 mg/kg, G8 350 mg/kg, G6 300 mg/kg, single IP, 6 mice a group
  animals died on Day 4 after administration: Five
[2]; Day 6
  Weight change rate, Day 6: 0.52 ± 0.00%
  Weight of mice, Day 6: 19.40 ± 0.00 g

## O=C(Nc1nc(=O)n([C@@H]2O[C@H](CO)[C@@H](O)C2(F)F)cc1Br)OCc1ccccc1 [Compound G7, 5-Br-4-N-(carboxybenzyl)-2′-deoxy-2′,2′-difluorocytidine]
[1]; Day 0
  Day 0 (RTV): 1.00 ± 0.00
  Tumor volume, Day 0: 133.56 ± 10.23 mm^3
  T/C % (relative tumor proliferation rate): 0.00%
[1]; Day 4
  Day 4 (TGI %): 53.12%
  Day 4 (RTV): 0.92 ± 0.08
  Tumor volume, Day 4: 124.90 ± 18.89* mm^3
  T/C % (relative tumor proliferation rate): 48.99%
[1]; Day 6
  Day 6 (TGI %): 78.40%
  Day 6 (RTV): 0.66 ± 0.12
  Tumor volume, Day 6: 91.30 ± 21.79** mm^3
  T/C % (relative tumor proliferation rate): 22.02%
[1]; Day 8
  Day 8 (TGI %): 82.62%
  Day 8 (RTV): 0.66 ± 0.12
  Tumor volume, Day 8: 91.30 ± 21.79*** mm^3
  T/C % (relative tumor proliferation rate): 17.67%
[1]; Day 8 to Day 13 after single-dose intraperitoneal administration
  tumor inhibition effect: good tumor inhibition effect
[1]; Day 11
  Day 11 (TGI %): 81.27%
  Day 11 (RTV): 1.10 ± 0.23
  Tumor volume, Day 11: 150.60 ± 38.77** mm^3
  T/C % (relative tumor proliferation rate): 18.54%
[1]; Day 13
  Day 13 (TGI %): 80.80%
  Day 13 (RTV): 1.66 ± 0.10
  Tumor volume, Day 13: 222.86 ± 25.56** mm^3
  T/C % (relative tumor proliferation rate): 19.33%
[1]; Day 15
  Day 15 (TGI %): 72.81%
  Day 15 (RTV): 2.91 ± 0.35
  Tumor volume, Day 15: 384.06 ± 36.79* mm^3
  T/C % (relative tumor proliferation rate): 27.80%
[1]; Day 18
  Day 18 (TGI %): 65.62%
  Day 18 (RTV): 4.86 ± 0.65
  Tumor volume, Day 18: 636.39 ± 30.26* mm^3
  T/C % (relative tumor proliferation rate): 35.32%
[1]; Day 20
  Day 20 (TGI %): 51.28%
  Day 20 (RTV): 7.99 ± 1.70
  Tumor volume, Day 20: 1032.60 ± 127.82 mm^3
  T/C % (relative tumor proliferation rate): 50.40%
[1]; Day 22
  Day 22 (TGI %): 44.07%
  Day 22 (RTV): 11.40 ± 2.93
  Tumor volume, Day 22: 1462.80 ± 246.74 mm^3
  T/C % (relative tumor proliferation rate): 58.62%
[1]; Day 22, G4 350 mg/kg, G5 325 mg/kg, G7 250 mg/kg, single IP
  T/C % on Day 22: 58.62%
[1]; G4 and G5 Day 4 to Day 18, G7 Day 4 to Day 15 (p<0.05-0.01), G9 only Day 4 (p<0.05)
  relative tumor volume compared with the model control group: reduced significantly
[1]; day of maximum: G3 Day 8, G4 Day 11, G5 Day 11, G9 Day 4, G7 Day 8, single IP
  maximum value of TGI %: 82.62%
[1]; day of minimum: G4 Day 13, G5 Day 11, G7 Day 8, single IP
  minimum value of T/C %: 17.67%
ICR mice
  dose that could be tolerated (maximum tolerated dose, MTD): 200 mg/kg
[2]
  Weight change rate, Day 0: 0.00 ± 0.00%
  Weight of mice, Day 0: 21.63 ± 1.17 g
  Weight change rate, Day 8: −1.24 ± 2.80%
  Weight of mice, Day 8: 21.30 ± 0.55 g
  Weight change rate, Day 11: 1.86 ± 3.24%
  Weight of mice, Day 11: 21.97 ± 0.59 g
  Weight change rate, Day 13: 5.62 ± 2.15%
  Weight of mice, Day 13: 22.80 ± 0.76 g
  Weight change rate, Day 15: 7.71 ± 1.47%
  Weight of mice, Day 15: 23.27 ± 0.93 g
  Weight change rate, Day 18: 6.51 ± 2.30%
  Weight of mice, Day 18: 23.00 ± 0.90 g
  Weight change rate, Day 20: 5.54 ± 2.07%
  Weight of mice, Day 20: 22.80 ± 1.00 g
  Weight change rate, Day 22: 4.65 ± 2.51%
  Weight of mice, Day 22: 22.60 ± 0.95 g
  Day 22 Mortality: 0%
[2]; Day 4 (G7: Day 4 and Day 6), p<0.05
  weights of animals on Day 4 after administration: significantly reduced
[2]; Day 4
  Weight change rate, Day 4: −12.28 ± 4.78 %
  Weight of mice, Day 4: 18.87 ± 0.09 g
[2]; Day 4, G4 350 mg/kg, G5 325 mg/kg, G7 250 mg/kg, single IP
  weight loss rate on Day 4 after administration: 12.28±4.78%
[2]; Day 6
  Weight change rate, Day 6: −4.39 ± 3.60 %
  Weight of mice, Day 6: 20.60 ± 0.32 g
[2]; Day 6, G7 250 mg/kg, single IP
  weight loss rate on Day 6 after administration: 4.39±3.6%
[2]; after single IP dose, compared with model control group
  clinical symptoms: no significant differences in clinical symptoms
